Read-outs that look alike come from different tables or passages of the source.
What was measured:
P. aeruginosa (PAO1) = test: MIC against P. aeruginosa; type: cell-based; settings: Pseudomonas aeruginosa
Method: (§1) The term “minimum inhibitory concentration (MIC)” means the lowest concentration of an antimicrobial agent that will inhibit the visible growth of a microorganism after overnight incubation. MIC values against bacteria, for example, the Gram-positive Staphylococcus aureus and Enterococcus faecalis and the Gram-negative Escherichia coli and Pseudomonas aeruginosa were determined by standard methods. See also P. A. Wayne, Methods for Dilution Antimicrobial Tests for Bacteria that Grow Aerobically; Approved Standard, Ninth Edition, 2012, CLSI Document M07-A9, Vol. 32 No. 2.
(§2) Biological testing procedures were adapted from prior work by Melander and coworkers. For all biological assays, laboratory strains of methicillin-susceptible Staphylococcus aureus MSSA (SH1000), Staphylococcus aureus CA-MRSA (USA300-0114), Staphylococcus aureus HA-MRSA (ATCC 33591), Escherichia coli (MC4100), Enterococcus faecalis (OG1RF), Acinetobacter baumannii (ATCC 17978), were grown with shaking at 37 °C overnight from freezer stocks in 5 mL of the indicated media: SH1000, OG1RF, MC4100, USA300-0114, and ATCC 17978 were grown in BDTM Mueller-Hinton broth (MHB), whereas ATCC 33591 was grown in BDTM tryptic soy broth (TSB). The inoculum were then streaked onto Mueller-Hinton agar (MHA) plates and grown overnight at 37 °C. From the plates, single colonies were selected, diluted into 50 mL of fresh media and grown overnight at 37 °C with shaking for use in the MIC assays. Optical density (OD) measurements were obtained using a SpectraMax iD3 plate reader (Molecular Devices, United States).
(§3) Compounds were serially diluted two-fold from stock solutions (1.0 mM) to yield twelve 100 μL test concentrations, wherein the starting concentration of dimethyl sulfoxide (DMSO) was 2.5%. Overnight S. aureus, E. faecalis, E. coli, A. baumannii, USA300-0114 (CA-MRSA), and ATCC 33591 (HA-MRSA) cultures were diluted to ca. 10^6 CFU/mL in MHB or TSB and regrown to mid-exponential phase, as determined by optical density recorded at 600 nm (OD600). All cultures were then diluted again to ca. 10^6 CFU/mL and 100 μL were inoculated into each well of a U-bottom 96-well plate (Corning, 351177) containing 100 μL of compound solution. Plates were incubated statically at 37 °C for 72 hours upon which wells were evaluated visually for bacterial growth. The MIC was determined as the lowest concentration of compound resulting in no bacterial growth visible to the naked eye, based on the highest value in three independent experiments. Aqueous DMSO controls were conducted as appropriate for each compound.
(§4) The prepared library of biscationic amphiphilic compounds was assessed for performance as antibacterial disinfectants by determining the minimum inhibitory concentration (MIC) for each against a panel of bacteria. The bacteria selected for the study were chosen to evaluate the broad spectrum antimicrobial performance of the QPCs, and therefore, included both Gram-positive and Gram-negative bacterial strains, including those with known antimicrobial resistance mechanisms. These bacteria include the Gram-positive strains of methicillin-susceptible Staphylococcus aureus [MSSA; SH1000], community-acquired methicillin-resistant Staphylococcus aureus [CA-MRSA; USA 300-0114], hospital-acquired methicillin-resistant Staphylococcus aureus [HA-MRSA; ATCC 33591] and the […], Escherichia coli [MC4100], Acinetobacter baumannii [ATCC 17498] and Pseudomonas aeruginosa [PAO1].

E. faecalis (OG1RF) = test: MIC against E. faecalis; type: cell-based; settings: Enterococcus faecalis, 72 h
Method: as §1, §2, §3, §4

red blood cells = test: Red Blood Cell (RBC) Lysis Assay (lysis20); type: cell-based, sheep; settings: concentration inducing 20% RBC lysis; sheep blood, 1 hour, 37 °C
Method: RBC lysis assays were performed on mechanically defibrinated sheep blood (Hemostat Labs: DSB030). An aliquot of 1.5 mL blood was placed into a microcentrifuge tube and centrifuged at 3,800 rpm for ten minutes. The supernatant was removed, and the cells were resuspended with 1 mL of phosphate-buffered saline (PBS). The suspension was centrifuged as described above, the supernatant was removed, and cells were resuspended 4 additional times in 1 mL PBS. The final cell suspension was diluted twentyfold with PBS. Compounds were serially diluted with PBS two-fold from stock solutions (1.0 mM) to yield 100 μL of twelve test concentrations on a flat-bottom 96-well plate (Corning, 351172), wherein the starting concentration of DMSO was 2.5%. To each of the wells, 100 μL of the twentyfold suspension dilution was then inoculated. TritonX (1% by volume) served as a positive control (100% lysis marker) and sterile PBS served as a negative control (0% lysis marker). Samples were then placed in an incubator at 37 °C and shaken at 200 rpm. After 1 hour, the samples were centrifuged at 3,800 rpm for ten minutes. The absorbance of the supernatant was measured with a UV spectrometer at a 540 nm wavelength. The concentration inducing 20% RBC lysis was then calculated for each compound based upon the absorbances of the TritonX and PBS controls. Aqueous DMSO controls were conducted as appropriate for each compound.
The potential cytotoxicity of the compounds was also considered with the evaluation of hemolysis (lysis20) assays with 20% lysis of red blood cells serving as an indicator of potentially toxic compounds. Finally, the bioactivity of these compounds were benchmarked against a commercial benzalkonium chloride source (BAC; 70% benzyldimethyldodecylammonium chloride, and 30% benzyldimethyltetradecylammonium chloride) as well as some previously reported disinfectant compounds from the inventors' groups; included were bisQPC ^PhP6P-10,10 as well as ^PhP2P-10,10 and 12(2)12. A detailed description of the experimental procedures used to evaluate bioactivity and hemolysis assays are described above.

A. baumannii = test: MIC against A. baumannii; type: cell-based; settings: Acinetobacter baumannii, 72 h
Method: as §1, §2, §3, §4

HA-MRSA (ATCC 33591) = test: MIC against hospital-acquired methicillin-resistant S. aureus (HA-MRSA); type: cell-based; settings: Staphylococcus aureus, 72 h
Method: as §1, §2, §3, §4

CA-MRSA (USA300-0114) = test: MIC against community-acquired methicillin-resistant S. aureus (CA-MRSA); type: cell-based; settings: Staphylococcus aureus, 72 h
Method: as §1, §2, §3, §4

E. coli (MC4100) = test: MIC against E. coli; type: cell-based; settings: Escherichia coli, 72 hours, 37 °C
Method: as §1, §2, §3, §4

MSSA (SH1000) = test: MIC against methicillin-susceptible S. aureus (MSSA); type: cell-based; settings: Staphylococcus aureus
Method: as §1, §2, §3, §4

[1] = P. aeruginosa (PAO1), 72 hours, 37 °C, read-out: MIC
[2] = MSSA (SH1000), 72 hours, 37 °C, read-out: MIC

Row | SMILES | MIC (P. aeruginosa (PAO1); [1]) [µM] | MIC (E. faecalis (OG1RF)) [µM] | Lysis20 (red blood cells) [µM] | MIC (A. baumannii) [µM] | MIC (HA-MRSA (ATCC 33591)) [µM] | MIC (CA-MRSA (USA300-0114)) [µM] | MIC (E. coli (MC4100)) [µM] | MIC (MSSA (SH1000); [2]) [µM] | MIC (P. aeruginosa (PAO1); PAO1, 72 h) [µM] | MIC (MSSA (SH1000); MSSA, 72 h) [µM]
1 | CCCCCCCCCC[P+](C)(C)CC[P+](C)(C)CCCCCCCCCC [^MeP2P-10,10] | 32 | 16 | 63 | 63 | 2 | 2 | 16 | 2 | – | –
2 | CCCCCCCCCC[P+](CC[P+](CCCCCCCCCC)(c1ccccc1)c1ccccc1)(c1ccccc1)c1ccccc1 [^PhP2P-10,10, reference compound] | 8 | 8 | 16 | 2 | 1 | 0.5 | 4 | 1 | – | –
3 | CCCCCCCC[P+](CC)(CC)CC[P+](CC)(CC)CCCCCCCC [^EtP2P-8,8] | > 250 | > 250 | 250 | > 250 | 250 | 125 | > 250 | 63 | – | –
4 | CCCCCCCCCCCCCC[P+](CC[P+](CCCCCCCCCCCCCC)(C1CCCCC1)C1CCCCC1)(C1CCCCC1)C1CCCCC1 [^CyP2P-14,14] | 63 | 32 | 8 | 63 | 2 | 4 | 63 | 4 | – | –
5 | CCCCCCCCCC[P+](CC)(CC)CC[P+](CC)(CC)CCCCCCCCCC [^EtP2P-10,10] | 32 | 16 | 63 | 32 | 8 | 1 | 16 | 2 | – | –
6 | CCCCCCCCCCCCCCCC[P+](C)(C)CC[P+](C)(C)CCCCCCCCCCC [^MeP2P-16,16] | > 250 | 250 | 125 | > 250 | 63 | 32 | 250 | 32 | – | –
7 | CCCCCCCCCCCCCCCC[P+](CC)(CC)CC[P+](CC)(CC)CCCCCCCCCCCCCCCC [^EtP2P-16,16] | – | 63 | 16 | 260 | 32 | 16 | 125 | – | 125 | 16
8 | CCCCCCCCCCC[P+](C)(C)CC[P+](C)(C)CCCCCCCCCCC [^MeP2P-11,11] | 8 | 2 | 16 | 16 | 1 | 1 | 4 | 2 | – | –
9 | CCCCCCCCCCCCCCCC[P+](CC[P+](CCCCCCCCCCCCCCCC)(C1CCCCC1)C1CCCCC1)(C1CCCCC1)C1CCCCC1 [^CyP2P-16,16] | 63 | 125 | 32 | 125 | 2 | 2 | 125 | 8 | – | –
10 | CCCCCCCCCCC[P+](CC)(CC)CC[P+](CC)(CC)CCCCCCCCCCC [^EtP2P-11,11] | 16 | 4 | 16 | 8 | 2 | 1 | 4 | 1 | – | –
11 | CCCCCCCCCCCC[P+](CC[P+](CCCCCCCCCCCC)(C1CCCCC1)C1CCCCC1)(C1CCCCC1)C1CCCCC1 [^CyP2P-12,12] | 16 | 16 | 16 | 4 | 2 | 2 | 8 | 2 | – | –
12 | CCCCCCCCC[P+](C)(C)CC[P+](C)(C)CCCCCCCCC [^MeP2P-9,9] | > 250 | 125 | 250 | 250 | 16 | 8 | 125 | 8 | – | –
13 | CCCCCCCC[P+](CC[P+](CCCCCCCC)(C1CCCCC1)C1CCCCC1)(C1CCCCC1)C1CCCCC1 [^CyP2P-8,8] | 250 | 63 | 125 | 125 | 8 | 2 | 63 | 2 | – | –
14 | CCCCCCCCCCCCCC[P+](C)(C)CC[P+](C)(C)CCCCCCCCCCC [^MeP2P-14,14] | 63 | 32 | 8 | 125 | 8 | 4 | 32 | 8 | – | –
15 | CCCCCCCCCCCCC[P+](CC[P+](CCCCCCCCCCCCC)(C1CCCCC1)C1CCCCC1)(C1CCCCC1)C1CCCCC1 [^CyP2P-13,13] | 63 | 32 | 8 | 16 | 1 | 2 | 32 | 2 | – | –
16 | CCCCCCCCCC[P+](CC[P+](CCCCCCCCCC)(C1CCCCC1)C1CCCCC1)(C1CCCCC1)C1CCCCC1 [^CyP2P-10,10] | 8 | 8 | 16 | 8 | 1 | 1 | 8 | 1 | – | –
17 | CCCCCCCCCCCCCC[P+](CC)(CC)CC[P+](CC)(CC)CCCCCCCCCCCCCC [^EtP2P-14,14] | 63 | 63 | 8 | 32 | 4 | 4 | 8 | 8 | – | –
18 | CCCCCCCC[P+](C)(C)CC[P+](C)(C)CCCCCCCC [^MeP2P-8,8] | > 250 | > 250 | 250 | > 250 | 250 | 125 | > 250 | 125 | – | –
